Legend:
[1] = tested on: culture-adapted P. falciparum parasite lines; experiment: in-vitro Piperaquine Survival Assay (PSA) on culture-adapted parasites; format: cell-based, Plasmodium falciparum; details: for in-vitro PSA survival rate (%): 200 nM PPQ for 48 hours
Procedure: (§1) Cryopreserved parasites were culture-adapted as described.^12 Susceptibility to PPQ was investigated using in-vitro PSA for culture-adapted parasites and ex-vivo PSA for fresh isolates. Survival rates were assessed microscopically and parasites with a survival rate ≥10% were considered PPQ-resistant.^7 msp1, msp2 and glurp polymorphisms were determined to distinguish recrudescent from new infections.^13 Sequencing of the K13-propeller domain was used to screen for ART-resistance.^1 Whole-genome sequencing was performed using Illumina paired-reads sequencing.^1 Data were integrated into the Whole-genome Data Manager (WDM) database^14 and exomes of PPQ-resistant and -sensitive lines were compared after excluding low-coverage positions (i.e., lower than 25% of the genome-wide mean coverage). Genes from highly variable multigene families (var, rifin, phist and stevor) were excluded.^1 CNVs and SNPs were investigated using PlasmoCNVScan and Phen2gen software (see below). 1+PfPM2 and Pfmdr1 copy number was determined by qPCR (see below). Steady-state PfPM2 mRNA levels were measured by RT-qPCR (see below) and PfPM2 protein expression by immunoblotting (see below).
In-vitro susceptibility to PPQ was investigated using the in-vitro or the ex-vivo PSA, which is based on exposing very early ring-stage parasites to 200 nM PPQ for 48 hours, washing away the drug, and assessing parasite growth after a further 24 hours of culture. Survival rates at the 72 hour time point were assessed microscopically by counting the proportion of viable parasites in exposed and non-exposed cultures that developed into second-generation rings or trophozoites with normal morphology. Parasites with a survival rate ≥10% were considered PPQ-resistant.^5

[2] = tested on: freshly collected P. falciparum patient isolates; experiment: ex-vivo Piperaquine Survival Assay (PSA) on fresh isolates; format: cell-based, Plasmodium falciparum
Procedure: Blood samples were collected into acid-citrate-dextrose tubes (Becton-Dickinson, USA) before treatment and sent to Institut Pasteur in Cambodia within 24 hours. A sub-set of freshly collected samples was used to perform the ex-vivo PSA.^7 All samples were cryopreserved in glycerolyte. Red cell pellets were stored at −20° C. for molecular studies. Blood spots were prepared on day 0 and when applicable on the day of recrudescence.
as §1, with “Genes from highly variable multigene families (var, rifin, phist and stevor) were excluded.^1 CNVs and SNPs were investigated using PlasmoCNVScan and Phen2gen software (see below).” left out, “Steady-state PfPM2 mRNA levels were measured by RT-qPCR (see below) and PfPM2 protein expression by immunoblotting (see below).” left out

## Clc1ccc2c(N3CCN(CCCN4CCN(c5ccnc6cc(Cl)ccc56)CC4)CC3)ccnc2c1 [PPQ, piperaquine]
[1]; 3D7 reference line
  in-vitro susceptibility to PPQ: Sensitive (sensitive if survival rates were <10%)
[1]; 3D7 reference line, survival at 72 hour
  in-vitro PSA survival rate (%): 0.1%
[1]; one sequence with DNA expansion type 3
  In-vitro PSA survival rate, PSA mean value: 39.3%
[1]; parasite line 6218
  in-vitro susceptibility to PPQ: Resistant (resistant if survival rates were ≥10%)
[1]; parasite line 6218 (2012, Battambang)
  in-vitro PSA survival rate (%): 40.8%
[1]; parasite line 6219
  in-vitro susceptibility to PPQ: Resistant (resistant if survival rates were ≥10%)
[1]; parasite line 6219 (2012, Battambang)
  in-vitro PSA survival rate (%): 58.6%
[1]; parasite line 6224
  in-vitro susceptibility to PPQ: Resistant (resistant if survival rates were ≥10%)
[1]; parasite line 6224 (2012, Pursat)
  in-vitro PSA survival rate (%): 61.4%
[1]; parasite line 6229
  in-vitro susceptibility to PPQ: Resistant (resistant if survival rates were ≥10%)
[1]; parasite line 6229 (2012, Battambang)
  in-vitro PSA survival rate (%): 46.6%
[1]; parasite line 6237
  in-vitro susceptibility to PPQ: Sensitive (sensitive if survival rates were <10%)
[1]; parasite line 6237 (2012, Kampong Thom)
  in-vitro PSA survival rate (%): 0.8%
[1]; parasite line 6246
  in-vitro susceptibility to PPQ: Resistant (resistant if survival rates were ≥10%)
[1]; parasite line 6246 (2012, Kampong Speu)
  in-vitro PSA survival rate (%): 36.9%
[1]; parasite line 6261
  in-vitro susceptibility to PPQ: Resistant (resistant if survival rates were ≥10%)
[1]; parasite line 6261 (2012, Pursat)
  in-vitro PSA survival rate (%): 70.5%
[1]; parasite line 6267
  in-vitro susceptibility to PPQ: Sensitive (sensitive if survival rates were <10%)
[1]; parasite line 6267 (2012, Kampong Speu)
  in-vitro PSA survival rate (%): 0.5%
[1]; parasite line 6272
  in-vitro susceptibility to PPQ: Resistant (resistant if survival rates were ≥10%)
[1]; parasite line 6272 (2012, Battambang)
  in-vitro PSA survival rate (%): 40.0%
[1]; parasite line 6273
  in-vitro susceptibility to PPQ: Sensitive (sensitive if survival rates were <10%)
[1]; parasite line 6273 (2012, Kampong Speu)
  in-vitro PSA survival rate (%): 0.2%
[1]; parasite line 6280
  in-vitro susceptibility to PPQ: Resistant (resistant if survival rates were ≥10%)
[1]; parasite line 6280 (2012, Battambang)
  in-vitro PSA survival rate (%): 28.9%
[1]; parasite line 6293
  in-vitro susceptibility to PPQ: Resistant (resistant if survival rates were ≥10%)
[1]; parasite line 6293 (2012, Battambang)
  in-vitro PSA survival rate (%): 39.3%
[1]; parasite line 6302
  in-vitro susceptibility to PPQ: Resistant (resistant if survival rates were ≥10%)
[1]; parasite line 6302 (2012, Battambang)
  in-vitro PSA survival rate (%): 42.5%
[1]; parasite line 6320
  in-vitro susceptibility to PPQ: Resistant (resistant if survival rates were ≥10%)
[1]; parasite line 6320 (2012, Battambang)
  in-vitro PSA survival rate (%): 62.1%
[1]; parasite line 6337
  in-vitro susceptibility to PPQ: Sensitive (sensitive if survival rates were <10%)
[1]; parasite line 6337 (2012, Kampong Speu)
  in-vitro PSA survival rate (%): 0.4%
[1]; parasite line 6341
  in-vitro susceptibility to PPQ: Resistant (resistant if survival rates were ≥10%)
[1]; parasite line 6341 (2012, Pursat)
  in-vitro PSA survival rate (%): 25.8%
[1]; parasite line 6349
  in-vitro susceptibility to PPQ: Sensitive (sensitive if survival rates were <10%)
[1]; parasite line 6349 (2012, Kampong Thom)
  in-vitro PSA survival rate (%): 0.6%
[1]; parasite line 6365
  in-vitro susceptibility to PPQ: Resistant (resistant if survival rates were ≥10%)
[1]; parasite line 6365 (2012, Battambang)
  in-vitro PSA survival rate (%): 51.8%
[1]; parasite line 6369
  in-vitro susceptibility to PPQ: Sensitive (sensitive if survival rates were <10%)
[1]; parasite line 6369 (2012, Pursat)
  in-vitro PSA survival rate (%): 6.4%
[1]; parasite line 6391
  in-vitro susceptibility to PPQ: Resistant (resistant if survival rates were ≥10%)
[1]; parasite line 6391 (2012, Battambang)
  in-vitro PSA survival rate (%): 39.4%
[1]; parasite line 6394
  in-vitro susceptibility to PPQ: Resistant (resistant if survival rates were ≥10%)
[1]; parasite line 6394 (2012, Battambang)
  in-vitro PSA survival rate (%): 56.7%
[1]; parasite line 6395
  in-vitro susceptibility to PPQ: Resistant (resistant if survival rates were ≥10%)
[1]; parasite line 6395 (2012, Battambang)
  in-vitro PSA survival rate (%): 19.2%
[1]; parasite line 6403
  in-vitro susceptibility to PPQ: Sensitive (sensitive if survival rates were <10%)
[1]; parasite line 6403 (2012, Pursat)
  in-vitro PSA survival rate (%): 0.5%
[1]; parasite line 6408
  in-vitro susceptibility to PPQ: Resistant (resistant if survival rates were ≥10%)
[1]; parasite line 6408 (2012, Battambang)
  in-vitro PSA survival rate (%): 58.7%
[1]; parasite line 6410
  in-vitro susceptibility to PPQ: Sensitive (sensitive if survival rates were <10%)
[1]; parasite line 6410 (2012, Battambang)
  in-vitro PSA survival rate (%): 6.0%
[1]; parasite line 6411
  in-vitro susceptibility to PPQ: Resistant (resistant if survival rates were ≥10%)
[1]; parasite line 6411 (2012, Battambang)
  in-vitro PSA survival rate (%): 71.6%
[1]; parasite line 6427
  in-vitro susceptibility to PPQ: Resistant (resistant if survival rates were ≥10%)
[1]; parasite line 6427 (2012, Battambang)
  in-vitro PSA survival rate (%): 77.4%
[1]; parasite line 6429
  in-vitro susceptibility to PPQ: Resistant (resistant if survival rates were ≥10%)
[1]; parasite line 6429 (2012, Pursat)
  in-vitro PSA survival rate (%): 51.8%
[1]; parasite line 6430
  in-vitro susceptibility to PPQ: Resistant (resistant if survival rates were ≥10%)
[1]; parasite line 6430 (2012, Battambang)
  in-vitro PSA survival rate (%): 51.3%
[1]; parasite line 6431
  in-vitro susceptibility to PPQ: Resistant (resistant if survival rates were ≥10%)
[1]; parasite line 6431 (2012, Battambang)
  in-vitro PSA survival rate (%): 61.5%
[1]; parasite line 6443
  in-vitro susceptibility to PPQ: Resistant (resistant if survival rates were ≥10%)
[1]; parasite line 6443 (2012, Battambang)
  in-vitro PSA survival rate (%): 49.6%
[1]; parasites harboring DNA expansion type 1 (N=13)
  In-vitro PSA survival rate, PSA mean value: 44.8%
[1]; parasites harboring DNA expansion type 2 (N=6)
  In-vitro PSA survival rate, PSA mean value: 64.9%
[1]; parasites harboring DNA expansion type 4 (N=2)
  In-vitro PSA survival rate, PSA mean value: 16.2%
[2]; isolates with unamplified (single copy) PfPM2
  median ex-vivo PSA survival rate: 0.004%
[2]; isolates with ≥2 PfPM2 copies
  median ex-vivo PSA survival rate: 51.7%
